Measured values: patent US12150930B2 (BDR Pharmaceuticals Int'l Pvt. Ltd., priority 2022, dated 2024)

Key:
[1] = cited from earlier work
[2] = API solubility study in solubilizers/solvents/co-solvents (formulation trials); format: physicochemical; details: ethanol added after addition of API
Description: During the selection of excipients for formulation of Enzalutamide oral solution, first it is required to select the excipients which are not covered by patent of Enzalutamide capsules and also excipients need to meet IIG limits and useful for product development.
In the present invention selection of Solubilizers based on different trials which are like Labrafac Lipophile WL-1349, Labrafil M1944 Cs, Maisine CC, Kolliphor RH 40, Tween 80, Castor Oil, Migloyl 812 etc.
Further, here in the present invention selection of Co-solvents also based on trials and experiments which are Propylene glycol, Polyethylene glycol 400, Poly ethylene glycol 200, Ethanol, Glycerine, Maisine CC etc.
Based on the API solubility study combination of Kolliphor RH 40 with Ethanol and Polyethylene 400 was taken for further study. […]
Process for the Preparation: • 1. Dispensed quantity of Polyoxyl 40 hydrogenated castor oil was taken and started heating with maintained temperature of 45° C. of product. Further, Dispensed quantity of glyceryl monolinoleate was added to material of above step under stirring mixing/homogenization process. • 2. […] Further, then dispensed quantity of Ethanol was added to above step of material and continued process of stirring/homogenization then added dispensed quantity of propylene glycol and continued the process till Enzalutamide was dissolved. […]

[3] = Stability of enzalutamide standard solution; format: physicochemical; details: 25° C., in ACN diluted with dissolution medium
Experimental: In that, 25 ml of ACN was dissolved and diluted with ACN to volume. From this solution, 2 ml of solution was transferred to a 100 ml volumetric flask and diluted with dissolution medium to volume. The standard solution was found stable at 25° C. for 27 h. Sample solution was prepared by adding a 5 ml sample of the present invention in 900 ml of dissolution medium. Further, 2.0 ml of this solution was diluted with 100 ml of dissolution medium.

CACO2 monolayers = details: across CACO2 monolayers; cited from earlier work

API solubilized during procedure [2]: approx. 80%
time for which the standard solution was found stable [3]: 27 h
Compound: CNC(=O)c1ccc(N2C(=S)N(c3ccc(C#N)c(C(F)(F)F)c3)C(=O)C2(C)C)cc1F [Enzalutamide]
Biopharmaceutics Classification System (BCS) class ([1]; low solubility and high permeability): Class 2
effect of pH on enzalutamide solubility ([1]; physiological pH range): not affected by pH
mean apparent permeability coefficient (CACO2 monolayers): 31 ×10⁻⁶ cm/s
